The text below walks through data of paper PMC6524873 (TH Open: Companion Journal to Thrombosis and Haemostasis, 2018).

The structures appear in SMILES notation.

Test [1] relates to human plasma. Nature of the test: Prothrombin time (PT) in pooled normal human plasma. The class given is biochemical. The conditions noted are these: up to 1,100 ng/mL. The protocol:
(§1) The ranges of inhibitor concentrations were chosen to encompass the peak and trough plasma levels measured in patients treated with these agents. [26] The PT was performed using HemosIL HS PLUS (Instrumentation Laboratory, Lexington, Massachusetts, United States) on an ACL 7000 coagulometer (Instrumentation Laboratory) according to the manufacturer's instructions. The aPTT was performed using Actin FSL reagent (Siemens, Marburg, Germany) on a BCS XP analyzer (Siemens) according to the manufacturer's instructions. Assays were performed three times in duplicate at 37 ° C. These PT and aPTT reagents were chosen because of their wide availability and their reported sensitivities to rivaroxaban and apixaban. [27]

The subject of test [2] is human plasma. The test is described as follows: Activated partial thromboplastin time (aPTT) in pooled normal human plasma. Format: biochemical. The conditions noted are these: up to 1,100 ng/mL. As to the method:
as §1

Test [3] deals with thrombin generation in plasma. The test is described as follows: Plasma-based calibrated thrombin generation assay. The class given is biochemical, human. Particulars: 3 pM tissue factor, concentration-dependent.
The target in test [4] is T1, factor Xa (Homo sapiens, UniProt P00742). Nature of the test: biochemical. Particulars: read-out: inhibition of factor Xa chromogenic activity.
Test [5] has as its target factor Xa incorporated into the prothrombinase complex (Homo sapiens, UniProt P00742). Nature of the test: Factor Xa chromogenic activity in the presence of factor Va, PCPS and prothrombin (hirudin added). Particulars: dose-dependent, data not shown.
Test [6] deals with T2, factor Xa incorporated in prothrombinase (Homo sapiens, UniProt P00742). The test is described as follows: Rate constants of inhibition of prothrombinase with rMZ as substrate (meizothrombin-DAPA fluorescence). Particulars: 37°C.
Test [7] deals with T2, factor Xa incorporated in prothrombinase. Nature of the test: Rate constants of inhibition of factor Xa in prothrombinase (prothrombin activation, thrombin-DAPA fluorescence, Scheme 2).
For test [8], the target named is T1, factor Xa. Nature of the test: Rate constants of inhibition of factor Xa (Pefafluor Xa, mixed inhibition model, Scheme 1). The class given is biochemical. Details: factor Xa and thrombin were purchased from Enzyme Research Laboratories; purchased Enzyme Research Laboratories (South Bend, IN).
Where [9] appears, read: 37°C, prothrombinase in complex with either form of meizothrombin.
Where [10] appears, read: 37°C, prothrombinase in complex with prothrombin.
[11] abbreviates: prothrombin substrate, 37°C, prothrombinase without prothrombin.
Setting [12] is: 37°C, […] inhibitor, 100 µM Pefafluor Xa, […] factor Xa.

T1 sequence (P00742 41-179 limits assumed): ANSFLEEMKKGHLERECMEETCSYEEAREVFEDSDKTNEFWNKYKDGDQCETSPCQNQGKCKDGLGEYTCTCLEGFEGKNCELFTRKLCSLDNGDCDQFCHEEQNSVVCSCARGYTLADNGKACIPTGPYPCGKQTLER
T1 sequence (P00742 235-488 limits assumed): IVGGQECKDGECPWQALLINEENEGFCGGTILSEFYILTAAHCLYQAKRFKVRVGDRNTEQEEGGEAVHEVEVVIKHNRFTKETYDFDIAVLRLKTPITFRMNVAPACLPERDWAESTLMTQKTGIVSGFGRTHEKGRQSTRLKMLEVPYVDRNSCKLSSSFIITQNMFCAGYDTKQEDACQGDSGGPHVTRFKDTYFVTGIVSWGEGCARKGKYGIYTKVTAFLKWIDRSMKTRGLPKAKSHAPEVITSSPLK
T2 sequence (P00742 41-179 limits assumed): as the sequence (P00742 41-179 limits assumed) above
T2 sequence (P00742 235-488 limits assumed): as the sequence (P00742 235-488 limits assumed) above
T2 sequence (P12259 29-737 partner limits assumed): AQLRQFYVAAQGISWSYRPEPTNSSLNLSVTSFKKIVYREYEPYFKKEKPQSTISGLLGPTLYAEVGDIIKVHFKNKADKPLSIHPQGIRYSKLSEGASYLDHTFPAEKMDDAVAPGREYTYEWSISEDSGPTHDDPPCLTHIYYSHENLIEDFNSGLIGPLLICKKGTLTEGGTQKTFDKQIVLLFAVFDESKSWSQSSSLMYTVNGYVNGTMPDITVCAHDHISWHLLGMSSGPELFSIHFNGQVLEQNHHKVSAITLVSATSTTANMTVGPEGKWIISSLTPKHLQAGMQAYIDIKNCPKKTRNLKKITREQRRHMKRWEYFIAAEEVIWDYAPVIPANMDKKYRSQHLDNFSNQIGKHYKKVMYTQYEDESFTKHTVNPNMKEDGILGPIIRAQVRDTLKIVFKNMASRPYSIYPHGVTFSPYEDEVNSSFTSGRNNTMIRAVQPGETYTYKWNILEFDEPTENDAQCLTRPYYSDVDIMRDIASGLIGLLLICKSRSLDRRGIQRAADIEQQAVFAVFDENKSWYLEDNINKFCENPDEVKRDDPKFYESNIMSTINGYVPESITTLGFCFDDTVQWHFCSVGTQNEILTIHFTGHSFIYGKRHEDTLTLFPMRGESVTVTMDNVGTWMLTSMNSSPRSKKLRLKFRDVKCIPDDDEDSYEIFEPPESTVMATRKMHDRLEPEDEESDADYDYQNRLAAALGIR
T2 sequence (P12259 1574-2224 partner limits assumed): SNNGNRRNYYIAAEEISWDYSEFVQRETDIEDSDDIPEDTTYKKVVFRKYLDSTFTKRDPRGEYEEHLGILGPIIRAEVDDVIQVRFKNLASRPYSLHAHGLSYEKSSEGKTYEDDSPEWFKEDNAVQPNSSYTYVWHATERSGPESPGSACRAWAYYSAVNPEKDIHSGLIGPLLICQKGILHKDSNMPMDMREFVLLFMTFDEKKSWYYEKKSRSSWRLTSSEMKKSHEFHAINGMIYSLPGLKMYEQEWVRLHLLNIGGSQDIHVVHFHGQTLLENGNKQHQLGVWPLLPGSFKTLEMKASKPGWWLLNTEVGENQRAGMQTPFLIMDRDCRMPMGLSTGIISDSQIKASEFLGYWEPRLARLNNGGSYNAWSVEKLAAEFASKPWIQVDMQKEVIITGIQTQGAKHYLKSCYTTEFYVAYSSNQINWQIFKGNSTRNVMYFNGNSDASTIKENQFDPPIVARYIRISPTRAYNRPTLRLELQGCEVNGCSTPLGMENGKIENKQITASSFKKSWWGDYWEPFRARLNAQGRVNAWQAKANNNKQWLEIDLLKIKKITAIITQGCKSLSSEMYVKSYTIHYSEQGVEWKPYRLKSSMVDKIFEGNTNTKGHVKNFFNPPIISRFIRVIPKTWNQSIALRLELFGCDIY
Chain of factor Xa incorporated into the prothrombinase complex (P00742 41-179 limits assumed): as the sequence (P00742 41-179 limits assumed) above
Chain of factor Xa incorporated into the prothrombinase complex (P00742 235-488 limits assumed): as the sequence (P00742 235-488 limits assumed) above
Chain of factor Xa incorporated into the prothrombinase complex (P12259 29-737 partner limits assumed): as the sequence (P12259 29-737 partner limits assumed) above
Chain of factor Xa incorporated into the prothrombinase complex (P12259 1574-2224 partner limits assumed): as the sequence (P12259 1574-2224 partner limits assumed) above

As to `O=C(NC[C@H]1CN(c2ccc(N3CCOCC3=O)cc2)C(=O)O1)c1ccc(Cl)s1` [Rivaroxaban, 5-chloro-N-((5S)-2-oxo-3-[4-(3-oxomorpholin-4-yl)phenyl]-1,3-oxazolidin-5-ylmethyl)thiophene-2-carboxamide], the “effect on the PT” value in the test on human plasma [1] was “prolonged the PT and aPTT in a concentration-dependent manner”. For the same compound, the “effect on the aPTT” value in the test with human plasma [2] is “prolonged the PT and aPTT in a concentration-dependent manner”. Moreover, in test [3], the “effect on endogenous thrombin potential (ETP)” value was “decreased endogenous thrombin potential (ETP)”, the “effect on lag time” value was “prolonged the lag time” and the “effect on peak thrombin concentration” value is recorded as “reduced peak thrombin concentration”. Moreover, the inhibition at 0.02 µM on factor Xa [4] is about 85%. Moreover, the “inhibition of factor Xa chromogenic activity in the presence of prothrombinase components” value in test [5] is reported as “over 95%”. For the same compound, in test [6] (free prothrombinase), the “ji 1, off-rate, E + I ⇔ E · I” value was “(2.15 ± 0.18) × 10 ^−3 s ^−1” and the “ki 1, on-rate, E + I ⇔ E · I” value is “(3.46 ± 0.49) × 10 ^−2 nM ^−1 ·s ^−1”. In addition, in test [6] (prothrombinase-rMZ complex), the “ji 2, off-rate, E · rMZ + I ⇔ E · rMZ · I” value was “(1.23 ± 0.08) × 10 ^−4 s ^−1” and the “ki 2, on-rate, E · rMZ + I ⇔ E · rMZ · I” value is listed as “(6.41 ± 0.44) × 10 ^−3 nM ^−1 ·s ^−1”. In test [7] (setting [9]), the “ji 3, off-rate, E · M + I ⇔ E · M · I or E · M2 + I ⇔ E · M2 · I” value is recorded as “(2.95 ± 0.11) × 10 ^−3 s ^−1” and the “ki 3, on-rate, E · M + I ⇔ E · M · I or E · M2 + I ⇔ E · M2 · I” value is on record as “(2.37 ± 0.22) × 10 ^−3 nM ^−1 ·s ^−1”. Moreover, in test [7] (setting [10]), the “ji 2, off-rate, E · P + I ⇔ E · P · I” value is listed as “(1.12 ± 0.15) × 10 ^−2 s ^−1” and the “ki 2, on-rate, E · P + I ⇔ E · P · I” value is reported as “(1.24 ± 0.02) × 10 ^−2 nM ^−1 ·s ^−1”. In test [7] (free enzyme inhibition, prothrombin substrate), the “K Pase1, lower than apixaban” value is given as 454 fold. Also, in test [7] (free factor Xa or factor Xa incorporated into the prothrombinase complex), the “dissociation rates, faster than apixaban” value was “about 3 fold”. Besides, in test [7] (setting [11]), the “ji 1, off-rate, E + I ⇔ E · I” value is “(1.31 ± 0.11) × 10 ^−3 s ^−1” and the “ki 1, on-rate, E + I ⇔ E · I” value is recorded as “(5.38 ± 0.35) × 10 ^−3 nM ^−1 ·s ^−1”. In test [7] (rivaroxaban slower than apixaban), the “ki 3 on-rate with prothrombinase-meizothrombin complex, slower than apixaban” value came out at 3 fold. At factor Xa [8] (setting [12]), the “j 3, off-rate, free factor Xa” value was “(3.21 ± 0.28) × 10 ^−2 s ^−1”; the “j 4, off-rate, factor Xa-substrate complex” value was “(2.01 ± 0.17) × 10 ^−2 s ^−1”; the “k 3, on-rate, free factor Xa” value is “(3.77 ± 0.32) × 10 ^−2 nM ^−1 ·s ^−1”; the “k 4, on-rate, factor Xa-substrate complex” value is listed as “(1.34 ± 0.04) × 10 ^−2 nM ^−1 ·s ^−1”. In addition, the “on- and off-rate constants for binding factor Xa alone (k 3 and j 3), on average faster than apixaban” value on factor Xa [8] (average of k3 and j3 ratios) came out at 21 fold. The “binding to the factor Xa-fluorogenic substrate complex (k 4 and j 4), on average faster than apixaban” value on factor Xa [8] (average of k4 and j4 ratios) was determined as 25 fold. The “rate of factor Xa inhibition, faster than apixaban” value on factor Xa [8] (kinetic measurements, p < 0.001) is on record as “up to 4 fold”.

Take `COc1ccc(-n2nc(C(N)=O)c3c2C(=O)N(c2ccc(N4CCCCC4=O)cc2)CC3)cc1` [Apixaban, 1-(4-methoxyphenyl)-7-oxo-6-(4-(2-oxopiperidin-1-yl)phenyl)-4,5,6,7-tetrahydro-1H-pyrazolo[3,4-c]pyridine-3-carboxamide]: the “effect on the PT” value in the test with human plasma [1] is “prolonged the PT and aPTT in a concentration-dependent manner”. For the same compound, the “effect on the aPTT” value in the test with human plasma [2] was “prolonged the PT and aPTT in a concentration-dependent manner”. In test [3], the “effect on endogenous thrombin potential (ETP)” value is given as “decreased endogenous thrombin potential (ETP)” and the “effect on lag time” value is on record as “prolonged the lag time”.
